The source of these data is ChEMBL document CHEMBL4483862, “Open-source discovery of chemical leads for next-generation chemoprotective antimalarials” (2018).

This assay concerns Plasmodium berghei. Description: Luciferase/luciferin-expressing antifolate-resistant parasites were used to infect a culture of HepG2 cells that were pre-incubated with compounds. Infected hepatocytes emit light due to the luciferase reaction. Assay results are presented as the percent inhibition of light emission compared to control. […]. Type of assay: functional. Conditions: sporozoite; for IC90: read-out: LUCIFERASE INFECTION ASSAY - IC90.

The mark [1] stands for this setting: read-out: LUCIFERASE INFECTION ASSAY - IC50.

With `COC(=O)c1c(NC(=O)c2cccnc2)c2cc(NCC3CCCCC3)cnc2n1Cc1ccccc1`, the IC90 was greater than 6.63 µM. In addition, the IC50 (HEPG2TOX_HILL_SLOPE 17.8, HEPG2TOX_R_SQUARED 0.594, PBLUC_HILL_SLOPE 8.22, PBLUC_R_SQUARED 0.247, read-out: LUCIFERASE INFECTION ASSAY - IC50) was 5.43 µM.
Turning to `Cn1nc(C(F)(F)F)cc1-c1ccc(NC(=O)Nc2cccc(C(F)(F)F)c2)s1`, the IC90 is greater than 7.6 µM. In addition, the IC50 (PBLUC_HILL_SLOPE 15.6, PBLUC_R_SQUARED 0.0592, read-out: LUCIFERASE INFECTION ASSAY - IC50) is 7.44 µM.
As for `O=C(Nc1ccccc1)Nc1ccc(C(=O)Nc2cc(C(F)(F)F)ccc2N2CCOCC2)s1`, the IC90 is 5.82 µM. For the same compound, for the setting “HEPG2TOX_HILL_SLOPE 11.7, HEPG2TOX_R_SQUARED 0.346, PBLUC_HILL_SLOPE 5.22, 24.2, PBLUC_R_SQUARED 0.290, 0.170, read-out: LUCIFERASE INFECTION ASSAY - IC50”, the IC50 was 4.29 µM.
In the case of `Cn1ccc2cc(-c3cnc4cnc(-c5ccccc5)cn34)ccc21`, the IC90 stood at 0.242 µM. Also, the 50% inhibitory concentration (IC50) (HEPG2TOX_HILL_SLOPE 1.21, HEPG2TOX_R_SQUARED 0.923, PBLUC_HILL_SLOPE 1.33, PBLUC_R_SQUARED 0.803, read-out: LUCIFERASE INFECTION ASSAY - IC50) was determined as 0.0465 µM.
On to `CCOC(=O)c1sc(N)c(C#N)c1CSc1nnc(Cc2cccc3ccccc23)n1C1CCCCC1`, for which the IC90 amounted to 9.87 µM. Also, the IC50 (PBLUC_HILL_SLOPE 16.7, PBLUC_R_SQUARED 0.489, read-out: LUCIFERASE INFECTION ASSAY - IC50) is 8.65 µM.
Consider `O=C(Nc1ccccc1)Nc1cccc(C(F)(F)F)c1`, for which the IC90 is 4.4 µM. Also, the IC50 (PBLUC_HILL_SLOPE 13.3, PBLUC_R_SQUARED 0.408, read-out: LUCIFERASE INFECTION ASSAY - IC50) was 3.73 µM.
`CCOc1cccc2cc(C(C)Nc3ncnc4n[nH]cc34)oc12` (stereo not given): the IC90 is 6.49 µM. In addition, the IC50 (HEPG2TOX_HILL_SLOPE 1.82, HEPG2TOX_R_SQUARED 0.969, PBLUC_HILL_SLOPE 2.94, PBLUC_R_SQUARED 0.376, read-out: LUCIFERASE INFECTION ASSAY - IC50) was 3.07 µM.
`O=C(O)c1ccc(Cl)cc1Oc1ccccc1`: the IC90 is greater than 13.3 µM. Also, the IC50 (FFLUC_HILL_SLOPE 1.52, FFLUC_R_SQUARED 0.302, read-out: LUCIFERASE INFECTION ASSAY - IC50) was greater than 13.3 µM.
On to `CCCc1nc(C)c(C(=O)Nc2nccn2Cc2ccccc2)s1`, for which the IC90 is greater than 10 µM. Further, the IC50 under setting [1] is greater than 10 µM.
For the compound `COC(=O)c1c(C)[nH]c(-c2nc(Nc3cccc(OC)c3)sc2C)c1C`, the IC90 is greater than 10 µM. The IC50 (PBLUC_HILL_SLOPE 3.29, PBLUC_R_SQUARED 0.0567, read-out: LUCIFERASE INFECTION ASSAY - IC50) stood at 7.6 µM.
With `CCCCC1(COC(=O)c2ccc(C(C)(C)C)cc2)C(=O)N(c2ccccc2)N(c2ccccc2)C1=O`, the 90% effect concentration (IC90) was greater than 6.62 µM. Besides, the IC50 (PBLUC_HILL_SLOPE 2.41, PBLUC_R_SQUARED 0.52, read-out: LUCIFERASE INFECTION ASSAY - IC50) is 4.52 µM.
Consider `CC(C(=O)OCC(=O)Nc1ccc(Cl)c2c1C(=O)c1ccccc1C2=O)N1C(=O)c2ccccc2C1=O` (stereo not given), for which the IC90 is greater than 10 µM. For the same compound, the IC50 under setting [1] is greater than 10 µM.
As to `O=C(Nc1cccc(C(F)(F)F)c1)n1nccc1-c1cc(-c2ccccc2)no1`, the IC90 is 3.32 µM. In addition, where the note is “HEPG2TOX_HILL_SLOPE 0.0838, HEPG2TOX_R_SQUARED 0.0659, PBLUC_HILL_SLOPE 13.2, PBLUC_R_SQUARED 0.221, read-out: LUCIFERASE INFECTION ASSAY - IC50”, the IC50 was 2.81 µM.
On to `CC(C)Cc1ccc(C(=O)CC(Sc2ccccc2N)c2ccc(Cl)cc2)cc1` (stereo not given), for which the IC90 came to 1.03 µM. Besides, under setting [1], the IC50 amounted to 0.135 µM.
Take `O=C1C=C/C(=N\Nc2ccc3ccccc3c2)c2cccnc21`: the IC90 was found to be 1.15 µM. The IC50 (HEPG2TOX_HILL_SLOPE 0.424, HEPG2TOX_R_SQUARED 0.848, PBLUC_HILL_SLOPE 2.17, PBLUC_R_SQUARED 0.805, read-out: LUCIFERASE INFECTION ASSAY - IC50) was 0.42 µM.
In the case of `Cc1cc[n+](CC(=O)Nc2ccc(Br)c(C)c2)cc1`, the IC90 is greater than 10 µM. Further, the IC50 (HEPG2TOX_HILL_SLOPE 5.04, HEPG2TOX_R_SQUARED 0.103, PBLUC_HILL_SLOPE 18.3, PBLUC_R_SQUARED 0.0767, read-out: LUCIFERASE INFECTION ASSAY - IC50) was determined as 9.35 µM.
As to `Fc1ccc(/C=N/n2c(-c3ccc(Cl)cc3)cs/c2=N\CC2CCCO2)cc1` (stereo not given), the IC90 was greater than 10 µM. The IC50 (PBLUC_HILL_SLOPE 2, PBLUC_R_SQUARED 0.363, read-out: LUCIFERASE INFECTION ASSAY - IC50) was found to be 5.58 µM.
`CC(C)(C)c1ccc(CSCCNC2=CC(=O)CC(c3ccc4c(c3)OCO4)C2)cc1` (stereo not given): the IC90 is greater than 7.54 µM. For the same compound, for the setting “HEPG2TOX_HILL_SLOPE 3.72, HEPG2TOX_R_SQUARED 0.93, PBLUC_HILL_SLOPE 2.67, PBLUC_R_SQUARED 0.216, read-out: LUCIFERASE INFECTION ASSAY - IC50”, the IC50 is 3.87 µM.
For the compound `CCn1c(C(=O)OC)c(NC(=O)C2CCOC2)c2cc(NCC(C)c3ccccc3)cnc21` (stereo not given), the IC90 is greater than 7.32 µM. In addition, the IC50 (PBLUC_HILL_SLOPE 1.36, PBLUC_R_SQUARED 0.443, read-out: LUCIFERASE INFECTION ASSAY - IC50) was 5.53 µM.
On to `CN(C)S(=O)(=O)c1cccc(NC(=S)N/N=C/c2cc3c(cc2[N+](=O)[O-])OCO3)c1`, for which the IC90 is greater than 10 µM. The IC50 (FFLUC_HILL_SLOPE 11, FFLUC_R_SQUARED 0.0812, read-out: LUCIFERASE INFECTION ASSAY - IC50) was greater than 10 µM.
Take `CN(c1ccccc1)S(=O)(=O)c1ccc(C(=O)Nc2nc(-c3cc(Cl)sc3Cl)cs2)cc1`: the IC90 turned out to be 8.48 µM. Moreover, for the setting “FFLUC_HILL_SLOPE 19.7, FFLUC_R_SQUARED 0.521, HEPG2TOX_HILL_SLOPE 3.83, HEPG2TOX_R_SQUARED 0.989, PBLUC_HILL_SLOPE 4.8, PBLUC_R_SQUARED 0.68, read-out: LUCIFERASE INFECTION ASSAY - IC50”, the IC50 worked out at 5.36 µM.
Regarding `N#Cc1ccc(/C=C/C(=O)c2cccc3ccccc23)cc1`, the IC90 was 7.94 µM. Where the note is “HEPG2TOX_HILL_SLOPE 12.4, HEPG2TOX_R_SQUARED 0.741, PBLUC_HILL_SLOPE 61.7, PBLUC_R_SQUARED 0.602, read-out: LUCIFERASE INFECTION ASSAY - IC50”, the IC50 was determined as 7.66 µM.
As to `CSc1sc(-c2nc(C)cs2)c(C)c1-c1ccnc(SCc2c(Cl)cccc2Cl)n1`, the IC90 was greater than 6.46 µM. The IC50 (FFLUC_HILL_SLOPE 1.79, FFLUC_R_SQUARED 0.514, read-out: LUCIFERASE INFECTION ASSAY - IC50) was greater than 6.46 µM.
Regarding `Cc1c(C(=O)OC(C(=O)c2ccccc2)c2ccccc2)sc2ncn(C)c(=O)c12` (stereo not given), the IC90 is 8.68 µM. Besides, under “PBLUC_HILL_SLOPE 24.2, PBLUC_R_SQUARED 0.462, read-out: LUCIFERASE INFECTION ASSAY - IC50”, the IC50 came out at 7.93 µM.
Take `Cc1nn(-c2ccccc2)c(Oc2ccccc2)c1/C=C1\C(=O)Nc2ccccc21`: the IC90 is 1.95 µM. The IC50 (HEPG2TOX_HILL_SLOPE 0.509, HEPG2TOX_R_SQUARED 0.727, PBLUC_HILL_SLOPE 1.23, PBLUC_R_SQUARED 0.54, read-out: LUCIFERASE INFECTION ASSAY - IC50) came out at 0.328 µM.
For `Cc1nc(SCc2nc(-c3cccs3)no2)c(C#N)c(C)c1C`, the IC90 came to 0.683 µM. Besides, the IC50 under setting [1] came out at 0.0298 µM.
Turning to `Cc1ccc(-n2c(C)cc(C(=O)COc3c(CO)cc(F)cc3CO)c2C)cc1C`, the IC90 was greater than 10 µM. Moreover, the IC50 (PBLUC_HILL_SLOPE 1.7, PBLUC_R_SQUARED 0.588, read-out: LUCIFERASE INFECTION ASSAY - IC50) was 6.56 µM.
As for `COc1ccc(COC(=O)Cc2c(C)[nH]c(-c3ccccn3)nc2=O)cc1OC`, the IC90 was found to be 8.13 µM. Further, the IC50 (PBLUC_HILL_SLOPE 4.54, PBLUC_R_SQUARED 0.664, read-out: LUCIFERASE INFECTION ASSAY - IC50) is 5.01 µM.
Turning to `Cc1nn(-c2ccccc2Cl)c2sc(C(=O)Nc3ccc(N4CCN(C)CC4)nc3)cc12`, the IC90 is greater than 10 µM. For the same compound, for the setting “PBLUC_HILL_SLOPE 1.19, PBLUC_R_SQUARED 0.233, read-out: LUCIFERASE INFECTION ASSAY - IC50”, the IC50 amounted to 5.77 µM.
Take `O=C(NC(=S)NN(Cc1ccccc1)c1ccccc1)C12CC3CC(CC(C3)C1)C2`: the IC90 is greater than 10 µM. Also, under setting [1], the IC50 was greater than 10 µM.
As for `Cc1cc(NC(=O)c2ccc(CSCc3c(Cl)cccc3Cl)cc2)no1`, the IC90 came out at 1.31 µM. Besides, the IC50 (FFLUC_HILL_SLOPE 28.8, FFLUC_R_SQUARED 0.69, PBLUC_HILL_SLOPE 8.08, PBLUC_R_SQUARED 0.529, read-out: LUCIFERASE INFECTION ASSAY - IC50) is 0.997 µM.
As for `N#CCCN(C(=O)CSc1nc2cc(S(=O)(=O)Nc3ccc(Cl)cc3)ccc2o1)c1ccccc1`, the IC90 stood at 7.89 µM. Besides, the IC50 (PBLUC_HILL_SLOPE 1.44, PBLUC_R_SQUARED 0.751, read-out: LUCIFERASE INFECTION ASSAY - IC50) turned out to be 1.72 µM.
As for `CC(C)C(NC(=O)c1ccc(F)cc1)C(=O)NCC1Cc2ccccc21` (stereo not given), the IC90 was greater than 10 µM. Moreover, the IC50 (PBLUC_HILL_SLOPE 3.06, PBLUC_R_SQUARED 0.302, read-out: LUCIFERASE INFECTION ASSAY - IC50) was 6.96 µM.
Regarding `CC(C)(C)c1ccc(NC(=O)c2sc3nc4c(c(-c5cccnc5)c3c2N)CCC4)cc1`, the IC90 is greater than 7.46 µM. The IC50 under setting [1] was greater than 7.46 µM.
Turning to `COc1ccc(C(=O)Nc2ccc3nc(-c4cc(OC)c(OC)c(OC)c4)nn3c2)cc1OC`, the IC90 was determined as 4.55 µM. In addition, the IC50 (PBLUC_HILL_SLOPE 1.61, PBLUC_R_SQUARED 0.589, read-out: LUCIFERASE INFECTION ASSAY - IC50) turned out to be 1.17 µM.

What is called IC50 is the concentration that gives 50% inhibition. Usually IC90 stands for the concentration needed for an effect of 90%.
